Reference: US7906620B2, “Tumor associated antigen, peptides thereof, and use of same as anti-tumor vaccines” (Yeda Research and Development Co. Ltd., priority 2002, dated 2011)

What was measured:
[1] = test system: peptide loaded on labeled RMA-S/HHD; assay: Immunogenicity of peptides in HHD mice: vaccination with peptide-loaded RMA-S/HHD/B7.1, cytolytic assay on peptide-loaded targets; assay type: in vivo; details: for Score: immunogenic score: ratio of specific lysis, specific peptide vs tyrosinase peptide loaded on RMA-S/HHD, average of two experiments, positive above 125%; for antigenic / immunogenic in HHD mice: mouse, in vivo
Experimental: FIG. 4 is a graph of the results of in vitro cytolytic assays. Seven peptides are immunogenic. Peptides were loaded on RMA-S/HHD/B7.1, washed and irradiated. HHD mice were immunized three times as described in the materials and methods section in Example 1. In vitro cytolytic assays were performed on the relevant peptide as target and on an irrelevant peptide. The score was deduced from the ratio of the specific lysis that were obtained. The positive peptides (above 125%) are marked by arrows. Peptides 1-6, 3-5 and 3-7 are derived from “Human 1-8D gene”.
Vaccination. HHD mice were immunized i.p. 3 times at 7-day intervals with 2×10^6 irradiated (5000 rad) tumor cells, or irradiated peptide-loaded RMA-S/HHD/B7.1 transfectants. Spleens were removed on day 10 after the last immunization, and splenocytes were restimulated in vitro, either with irradiated tumor cells or with one third of the lymphocytes pre-pulsed with 100 μM synthetic peptides in opti-MEM (Life Technologies) for 2 hr at 37° C., 5% CO2. Restimulated lymphocytes were cultured in RPMI-HEPES medium containing 10% FCS, 2 mM glutamine, combined antibiotics, 1 mM sodium pyruvate, 25 mM HEPES, 5×10^−5M PME and 1% NEAA for 5 days. Viable cells (effectors) were separated by Lympholyte-M (Cedarlane, Hornby, Canada) gradient, resuspended and admixed at different ratios with 5,000 ^35S-methionine-labeled target cells. Cytolytic assays were carried out as described previously in Carmon et al., 2000. Extracts of tumor peptides or normal colon peptides were prepared from a pool of 6 post-surgical colon carcinoma specimens as described before Carmon et al., 2000.
The antigenic peptides were tested for their specific immunogenicity in HHD mice. HHD mice were vaccinated with RMA-S/HHD/B7.1 cells loaded with each of the peptides (listed in Table 3), their spleens were removed, and resensitized in vitro with synthetic peptides for four days. On the fifth day, a cytolytic assay was performed on two targets, either the peptide itself loaded on labeled RMA-S/HHD or the tyrosinase peptide as a negative control. The ratio of specific lysis between specific and tyrosinase peptides was defined as “immunogenic score”. This experiment was repeated twice and the average score of each of the antigenic peptides is specified (Table 3 and FIG. 4). The horizontal line in FIG. 4 represents the limit of 95% significance as defined by assuming normal distribution of scores.

T2 cells = assay: In vitro priming of human CTL with prostate peptides, cytolytic assay on peptide pulsed T2 cells; assay type: cell-based; details: three healthy and two CaP individuals
Experimental: FIGS. 16A-16D are graphs showing in vitro priming of human CTLs. PBMC of leukopheresis samples were isolated and in vitro CTL primed with peptide pulsed autologous DC. PBMC were supplemented with IL-7 and two days later IL-2 was added and renewed every three days. Additional two cycles of re-stimulation were done every 7 days over peptide pulsed monocytes. Seven days after the last stimulation cytolytic assay was performed using peptide pulsed or non-pulsed T2 cells as target. In FIG. 16A, PBMC derived from CaP individual (donor A) were primed and re-stimulated with STEAP-3 pulsed DC/monocytes. Target cells: relevant (STEAP-3) and non-relevant peptide (HIV-derived, PAP-3) pulsed T2 cells. In FIG. 16B, PBMC derived from healthy individual (donor B) were primed and restimulated with PAP-3 pulsed DC/monocytes. Target cells: relevant (PAP-3) and non-relevant peptide (HIV-derived, STEAP-3) pulsed T2 cells. PBMC derived from healthy individual (donor C) were primed and restimulated with either PAP-3 (C-1; FIG. 16C) or STEAP-3 (C-2; FIG. 16D) pulsed DC/monocytes. Relevant (PAP-3 or STEAP-3) peptide pulsed and non-pulsed T2 cells were used as targets.
FIGS. 17A-17C are graphs showing peptide specific CTL induced in human PBMC by PAP-3 (FIG. 17A), STEAP-3 (FIG. 17B), and PSGR-1 (FIG. 17C). PBMC from a healthy donor were stimulated by peptide pulsed DC as described and CTL activity was tested on homologous peptide pulsed T2 target cells (HLA-A2 lymphoma, TAP deficient).
Finally, peripheral blood of two healthy (donors B, C) and one CaP (donor A) individuals were tested for the existence of CTL precursors (FIGS. 16A-16D). Leukopheresis products of the donors were obtained from Barzilai Medical Center (Ashkelon, Israel) according to Declaration of Helsinki Principles. PBMC were isolated by centrifugation on Ficoll-Plaque Plus gradients (Amersham, Sweden). In vitro priming of CTL was done over autologous DC that were prepared from monocytes by IL-4 and GM-CSF treatment and maturated with a IL-1β, IL-6, TNF-α and PGE2 cocktail. DC were pulsed with synthetic peptides and PBMC were supplemented with IL-7. Two days later, IL-2 was added and renewed every three days. Two additional re-stimulations were done every 7 days over peptide pulsed monocytes. Seven days after the third stimulation, lymphocytes were harvested and a cytolytic assay was performed using relevant/non-relevant peptide pulsed or non-pulsed at all T2 cells.
(§1) When human PBMC are stimulated in vitro by PAP-3 and STEAP-3 peptides, the resulting CTL can lyse target cells (T2, EL4/HHD) pulsed with PAP-3, STEAP-3 or PSGR-1 and PSGR-6 peptides. (FIGS. 15 and 16). Here, these findings were expanded and peripheral blood of three healthy and two CaP individuals was tested for the existence of CTL precursors against PAP-3, STEAP-3 and PSGR-1 peptides. Leukopheresis products of the donors were obtained from Barzilai Medical Center (Ashkelon, Israel) according to Declaration of Helsinki Principles. PBMC were isolated by centrifugation on Ficoll-Plaque Plus gradients (Amersham, Sweden). In vitro priming of CTL was done over autologous DC that were prepared from monocytes by IL-4 and GM-CSF treatment and matured with a IL-1β, IL-6, TNF-α and PGE2 cocktail. DC were pulsed with synthetic peptides and PBMC were supplemented with IL-7. Two days later, IL-2 was added and renewed every three days. Two additional re-stimulations were done every 7 days over peptide pulsed monocytes. Seven days after the third stimulation, lymphocytes were harvested and a cytolytic assay was performed using relevant/non-relevant peptide pulsed or non-pulsed T2 cells (FIGS. 17A-17C) and LNCaP (high and low HLA expressors) cells as targets (FIGS. 18A-18E). […] Monitoring of HLA-A2-peptide specific CD8+ cells for PAP-3 and STEAP-3 was also performed by MHC-peptide tetramers (tetramers of recombinant HLA-A2.1-beta2 microglobulin single chain with peptides were prepared in collaboration with Dr Yoram Reiter, Technion, Haifa). […]

LNCaP = assay: Lysis of LNCaP tumor cells by human anti-peptide CTL; assay type: cell-based; details: LNCaP high and low HLA expressors as targets
Text: FIGS. 18A-18E are graphs showing that human anti-peptide CTL from a healthy donor kills LNCaP tumor cells. PBMC from a healthy donor (FIGS. 18A-18C) or a CaP patient (FIGS. 18D-18E) were stimulated with PAP-3 (FIGS. 18A, 18D), STEAP-3 (FIGS. 18B, 18E) or PSGR-1 (FIG. 18C) as described. LNCaP/CRL1740 (LNCaP high in HLA-A2.1 expression), LNCaP/CRL10995 (LNCaP low in HLA-A2.1 expression) and PC3 (negative for HLA-A2.1) served as targets in CTL assays.
as §1

Sequence: ALGFYPAEI (listed as Homo sapiens) [Peptide 3-3]
- Score [1]: 93.6

Sequence: ALPDETEVV (listed as Homo sapiens) [Peptide 2-1, Human osteonectin 23-31]
- Score [1]: 115.0

Sequence: ALRGHSHFV (listed as Homo sapiens) [Peptide 1-8, Human MHC protein homologous to chicken B complex 58-66]
- Score [1]: 106.7

Sequence: DLQETLVKI (listed as Homo sapiens) [Peptide 3-6, Human chaperonin like protein 316-324]
- Score [1]: 84.6

Sequence: FELAAESDV (listed as Homo sapiens) [Peptide 1-4, Transforming growth factor beta induced gene 380-338]
- Score [1]: 83.3

Sequence: GQQSTVSDV (listed as Homo sapiens) [Peptide 1-5]
- Score [1]: 125.0

Sequence: ILLVMGVDV (listed as Homo sapiens) [PSGR-1, PSGR start position 202]
- activation of CTL precursors in PBMC derived from CaP patients and healthy donors (T2 cells): activated CTL precursors
- lysis of tumor cells expressing endogenously processed proteins (LNCaP): lyse tumor cells

Sequence: IPMGKSMLV (listed as Homo sapiens) [Peptide 2-2, Insulin like growth factor II 3-11]
- Score [1]: 9.5

Sequence: IQQYGHQEV (listed as Homo sapiens) [Peptide 1-7]
- Score [1]: 94.6

Sequence: IVDDITYNV (listed as Homo sapiens) [Peptide 1-11]
- Score [1]: 126.8
- antigenic / immunogenic in HHD mice [1]: antigenic and immunogenic

Sequence: KIEDNNTLV (listed as Homo sapiens) [Peptide 2-3, Human ribosomal protein L23a mRNA 89-97]
- Score [1]: 150.0
- antigenic / immunogenic in HHD mice [1]: antigenic and immunogenic

Sequence: LLVIIPVLV (listed as Homo sapiens) [Peptide 1-2, Human 1-8D gene from interferon inducible gene 119-127]
- Score [1]: 108.3

Sequence: MLTINGKAI (listed as Homo sapiens) [Peptide 3-1, Transforming growth factor beta induced gene 343-351]
- Score [1]: 147.1
- antigenic / immunogenic in HHD mice [1]: antigenic and immunogenic

Sequence: SIAEFFSDI (listed as Homo sapiens) [Peptide 3-2, Human TB2 gene 105-113]
- Score [1]: 143.2
- antigenic / immunogenic in HHD mice [1]: antigenic and immunogenic

Sequence: TILTAVLLV (listed as Homo sapiens) [Peptide 1-10, Human defensin 6 5-13]
- Score [1]: 97.5

Sequence: TLQLSRAPV (listed as Homo sapiens) [Peptide 1-12, Human mRNA for dipeptidase 223-231]
- Score [1]: 107.9

Sequence: VIATNILLV (listed as Homo sapiens) [Peptide 1-9, Human chaperonin-like protein 368-346]
- Score [1]: 69.7

Sequence: VLYDELKKV (listed as Homo sapiens) [Peptide 1-1, Human ADP/ATP translocase 253-261]
- Score [1]: 121.7

Sequence: VQPQSPVAV (listed as Homo sapiens) [Peptide 1-3]
- Score [1]: 112.0

Sequence: WVVYGVFSI (listed as Homo sapiens) [Peptide 3-4, Human TB2 gene 98-106]
- Score [1]: 90.9
